The values below come from patent US11654292B2 (priority 2017, dated 2023).

Experiment [1] has as its system mouse breast cancer, 4T1, cells. The experiment can be described thus: In vivo TOL (digoxin + PMF) in immune competent mice with 4T1 tumors. The arrangement: species or system BALBc mice. The note with it: 7 mg/kg digoxin s.c. x5 + PMF 30 min on day 0, 2 and 4 (TOL), FIG. 7. As for the experimental part: FIG. 7A. […] Arrows indicate days of treatment; 7B. […] Thus, the life expectancy of mice treated with TOL exceeds that of controls by approximately 1 week.
This treatment was administered on day 0 (first day of treatment), on day 2 and on day 4. Mice were monitored for tumor growth and were sacrificed when they met the NIH criteria for humane endpoint euthanasia.

For experiment [2], the system named is MDA-MB-231 cells. The experiment can be described thus: Stimulus intensity-response curve of pulsed magnetic field for cell lysis. Type of experiment: cell-based. The note with it: 500 nM digoxin, PMF stimulus intensity 80 mT (FIG. 1). As for the experimental part: FIG. 1 Stimulus intensity—response curve to determine the strength of the pulsed magnetic field necessary to produce cell lysis of MDA-MB-231 cells, in vitro (p<0.01).
A study was conducted where cells were pulsed with an increasing stimulus intensity to determine the strength of the pulsed magnetic field necessary to produce cell lysis of MDA-MB-231 cells in vitro. […] All tubes were exposed to a 0 to 80 mT PMF.

The test system of experiment [3] is MDA-MB-231 breast cancer cells. As to the kind of experiment: Cell lysis, digoxin with 80 mT pulsed magnetic field in solenoid. Type of experiment: cell-based. As to conditions: 100 nM digoxin + 80 mT magnetic pulses at 25 Hz, within 10 min. From the text: (§1) Tubes were placed in an 8″1X 2.5″dia. solenoid with 697 turns (500 ft.) of 12 ga copper wire. A 5VDC current from an AE Techron 7224 DC-extended AC amplifier pulsed at 25 Hz, with a 10 msec ramp and fall, controlled by a Techtronics AFG 3021B waveform generator produced 80 mT magnetic pulses in the solenoid.

For experiment [4], the system named is MCF-10a normal breast epithelial cells. The experiment is described as above. The format is cell-based. As to conditions: 100 nM digoxin + 80 mT magnetic pulses at 25 Hz.
Description: as §1

For another experiment, the system named is MDA-MB-231 xenografts. The experiment can be described thus: In vivo TOL (digoxin + PMF) in mice with MDA-MB-231 xenografts. The arrangement: species or system J/Nu mice.
Experiment [5] relates to MDA-MB-231 cells. The experiment can be described thus: Sodium dependence of TOL in Ringer's solution with or without sodium. The format is cell-based. The note with it: Homo sapiens, MDA-MB-231, 10 min. As for the experimental part:
FIG. 2 TOL is dependent on the presence of sodium.
A study was conducted where the culture media containing MDA-MB-231 cells was replaced with Ringer's solution with or without sodium and then stimulated with pulsed magnetic fields of 80 mT for 10 minutes. Cells were transferred to microfuge tubes containing either Ringers +Na^+ or Ringers−Na^+.

The subject of experiment [6] is MDA-MB-231 cells. The experiment can be described thus: Trypan Blue estimate of cell lysis, ouabain with or without pulsed z-gradient magnetic field (MRI). Type of experiment: cell-based. As for the experimental part:
Two tubes of MDA-MB-231 cells were prepared. The media in one tube was replaced by media containing 100 nM ouabain to block the sodium pumps. Both tubes were placed in the MRI and offset from center by 317 mm in the z-gradient field and exposed to the pulsed magnetic field. The samples were then repositioned and imaged.
After imaging, the cells in each vial were stained with Trypan Blue to estimate the number of cells that had been lysed by each treatment: (A) magnetic stimulation alone or (B) ouabain and magnetic stimulation. Virtually all of the cells that had only been exposed to pulsed magnet field stimulation were alive (expelled the Trypan Blue stain) and 10-15% of the cells that had been simultaneously treated with ouabain and pulse magnetic field stimulation were dead (appeared shrunken and retained the stain).
In this example, cells were exposed to ouabain for over 60 min during the preparation for the magnetic field stimulation. Because lysis may occur in a small percentage of cells when exposed to ouabain alone, a study was conducted where a vial of cells was exposed to ouabain without pulsed field stimulation for greater than 90 min.
The duration, amplitude and frequency of the pulsed z-gradient field was varied. All targeted osmotic lysis (TOL) vials (ouabain and pulsed magnetic field stimulation) were exposed to 100 nM ouabain for 10 min. Ouabain-treated and normal MDA-MB 231 control vials were exposed to the same pulsed magnetic field and then stained with Trypan Blue to estimate the amount of cell lysis in each tube. Two trials were conducted using the maximum field strength available (289.1689 Amp). The pulsed stimulus for the first of these trials was delivered with a rise time of 10 msec, a 2.5 msec return to baseline and an inter-stimulus interval of 17.5 msec; the stimulus was pulsed with a rise time of 10 msec, a 2.5 msec return to baseline and an inter-stimulus interval of 7.5 msec for the second trial. […]

SMILES strings stand for the structures. Where two headings read alike, the source gives them in different places.

Description for MDA-MB-231 xenografts: This protocol establishes steady-state pharmacokinetics in even poorly vascularized tissues. The mice were exposed to the pulsed magnetic field, using the same parameters as with the cultured cells, for 15 min starting 30 min after the last injection. This treatment was repeated two and four days after the first treatment. Mice were sacrificed and fixed with 4% paraformaldehyde 24 hrs after the third treatment. Tissues from these animals were sectioned and evaluated by a pathologist that was blind to the treatment.

Consider `C[C@H]1O[C@@H](O[C@H]2[C@@H](O)C[C@H](O[C@H]3[C@@H](O)C[C@H](O[C@H]4CC[C@@]5(C)[C@H](CC[C@@H]6[C@@H]5C[C@@H](O)[C@]5(C)[C@@H](C7=CC(=O)OC7)CC[C@]65O)C4)O[C@@H]3C)O[C@@H]2C)C[C@H](O)[C@@H]1O` [digoxin], for which, in experiment [1], the “time to reach humane endpoint euthanasia criteria vs control groups” value is “significantly longer”. This compound also returned a cell lysis with MDA-MB-231 cells [2] of approximately 100%. For the same compound, the cells lysed in experiment [3] is reported as 97.5%. The “cell lysis when stimulated” value in experiment [4] is “Neither digoxin-treated nor untreated MCF-10a cells lysed”. Also, in the experiment on MDA-MB-231 xenografts (5 mg/kg digoxin s.c. five times at 1 hr intervals + PMF 15 min, three treatments (TOL)), the tumor lysis is 80-100%. In addition, the “median tumor necrosis score (grade 1-5) vs controls” value in the experiment on MDA-MB-231 xenografts (5 mg/kg digoxin s.c. x5 + PMF (TOL), FIG. 4, p<0.05) is listed as “significantly greater”. Besides, in the experiment on MDA-MB-231 xenografts (5 mg/kg digoxin s.c. x5, no magnetic stimulation), the “tumor histology, drug-only control vs untreated controls” value is on record as “did not differ from untreated controls”. Also, in the experiment with MDA-MB-231 xenografts (TOL (Dig-PMF), FIG. 6), the “tumor growth rate vs controls” value was “significantly slower”. The cytotoxicity at 0.5 µM in the experiment on MDA-MB-231 cells [5] (read-out: non-viable cells, 500 nM digoxin + 80 mT PMF 10 min (Dig-PMF), Ringers +Na+ (FIG. 2)) is approximately 70%; in the experiment on MDA-MB-231 cells [5] (read-out: non-viable cells, 500 nM digoxin + 80 mT PMF 10 min (Dig-PMF), Ringers without sodium (FIG. 2)), less than 20%.

As for `C[C@@H]1O[C@@H](O[C@H]2C[C@@H](O)[C@]3(CO)[C@H]4[C@H](O)C[C@]5(C)[C@@H](C6=CC(=O)OC6)CC[C@]5(O)[C@@H]4CC[C@]3(O)C2)[C@H](O)[C@H](O)[C@H]1O` [ouabain], in the experiment with MDA-MB-231 cells [6] (100 nM ouabain 10 min + pulsed z-gradient field, amplitude 289.1689, inter-pulse interval 7.5 msec (50 Hz)), the “cell lysis, kill rate” value was 80-90%. The “cells dead (retained Trypan Blue stain)” value in the experiment with MDA-MB-231 cells [6] (100 nM ouabain (over 60 min) + pulsed z-gradient magnetic field 5 min, amplitude 187.5973, inter-stimulus interval 17.5 msec) is 10-15%. The cells dead result with MDA-MB-231 cells [6] (ouabain alone, no pulsed field stimulation, greater than 90 min) was “Less than 1%”.
